The results in this text go back to patent US9163015B2, “Pyrazolopyridine, pyrarolopyrazine, pyrazolopyrimidine, pyrazolothiophene and pyrazolothiazole compounds as MGLUR4 allosteric potentiators, compositions, and methods of treating neurological dysfunction” (Vanderbilt University, priority 2010, dated 2015).

The assay deals with human mGluR4 (Homo sapiens (Human), UniProt Q14833). The experiment in a line: mGluR4 potentiation assay, CHO cells transfected with human mGluR4, Ca2+-sensitive fluorescent dye, EC20 agonist. The class given is cell-based. Particulars: potentiation of mGluR4; table does not state human or rat receptor. On the procedure:
The disclosed compounds and compositions can be evaluated for their ability to act as a potentiator of metabotropic glutamate receptor activity, in particular mGluR4 activity, by any suitable known methodology known in the art. For example, Chinese Hamster Ovary (CHO) cells transfected with human mGluR4 or HEK cells co-transfected with rat mGluR4 and the G-protein regulated Inwardly Rectifying Potassium channel (GIRK) were plated in clear bottom assay plates for assay in a Hamamatsu FDSS Fluorometric Plate Reader. The cells were loaded with either a Ca2+-sensitive fluorescent dye or the thallium responsive dye and the plates were washed and placed into a suitable kinetic plate reader. For human mGluR4 assays, a fluorescence baseline was established for 3-5 seconds, the disclosed compounds were then added to the cells, and the response in cells was measured. Approximately two and a half minutes later, a concentration of mGluR4 orthosteric agonist (e.g. glutamate or L-AP4) eliciting approximately 20% (EC20) of the maximal agonist response was added to the cells, and the response was measured. Two minutes later, a concentration of mGluR4 agonist (e.g. glutamate or L-AP4) eliciting 80% (EC80) of the maximal agonist response was added to the cells, and the response was measured. For rat mGluR4/GIRK experiments, a baseline was established for approximately five seconds, disclosed compounds were added, and either an EC20 or EC80 concentration of agonist was added approximately two and one half minutes later.
The above described assay operated in two modes. In the first mode, a range of concentrations of the disclosed compounds are added to cells, followed by a single fixed concentration of agonist. If the compound acts as a potentiatior, an EC50 value for potentiation and a maximum extent of potentiation by the compound at this concentration of agonist is determined by non-linear curve fitting. If the compound acts as a noncompetitive antagonist, an IC50 value is determined by non-linear curve fitting. In the second mode, several fixed concentrations of the disclosed compounds are added to various wells on a plate, followed by a range in concentrations of agonist for each concentration of disclosed compound. The EC50 values for the agonist at each concentration of compound are determined by non-linear curve fitting. A decrease in the EC50 value of the agonist with increasing concentrations of the sample compound (a leftward shift of the agonist concentration-response curve) is an indication of the degree of mGluR4 potentiation at a given concentration of the sample compound. A decrease in the maximal response of the agonist with increasing concentrations of the sample compounds, with or without a rightward shift in agonist potency, is an indication of the degree of noncompetitive antagonism at mGluR4. The second mode also indicates whether the sample compounds also affect the maximum response to mGluR4 to agonists.

Chain of human mGluR4 (Q14833 33-912): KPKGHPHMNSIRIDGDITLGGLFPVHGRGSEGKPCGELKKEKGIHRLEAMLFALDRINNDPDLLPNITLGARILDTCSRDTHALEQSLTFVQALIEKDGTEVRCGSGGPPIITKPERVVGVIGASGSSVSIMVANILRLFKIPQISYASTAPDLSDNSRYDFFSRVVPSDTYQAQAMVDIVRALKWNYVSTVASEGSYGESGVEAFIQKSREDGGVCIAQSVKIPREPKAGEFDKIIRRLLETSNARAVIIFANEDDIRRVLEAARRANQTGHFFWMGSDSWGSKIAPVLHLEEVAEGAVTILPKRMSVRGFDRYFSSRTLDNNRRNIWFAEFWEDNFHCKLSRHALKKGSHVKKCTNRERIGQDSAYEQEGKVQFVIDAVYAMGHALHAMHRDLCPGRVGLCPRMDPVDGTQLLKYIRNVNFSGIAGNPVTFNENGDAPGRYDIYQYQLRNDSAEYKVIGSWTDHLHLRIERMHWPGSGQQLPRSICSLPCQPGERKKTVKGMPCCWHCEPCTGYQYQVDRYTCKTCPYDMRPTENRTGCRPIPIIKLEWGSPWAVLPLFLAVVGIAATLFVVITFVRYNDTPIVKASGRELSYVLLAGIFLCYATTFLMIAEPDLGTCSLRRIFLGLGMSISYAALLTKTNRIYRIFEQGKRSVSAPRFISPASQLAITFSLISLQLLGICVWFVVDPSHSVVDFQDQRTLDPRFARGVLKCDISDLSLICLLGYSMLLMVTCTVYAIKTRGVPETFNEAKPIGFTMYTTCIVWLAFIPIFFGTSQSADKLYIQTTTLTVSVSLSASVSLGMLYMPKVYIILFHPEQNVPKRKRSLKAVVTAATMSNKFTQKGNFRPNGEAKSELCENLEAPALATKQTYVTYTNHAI

In the case of `O=C(c1ccccc1F)c1ccc(Nc2n[nH]c3cccnc23)cc1Cl` [Example 88, (4-((1H-pyrazolo[4,3-b]pyridin-3-yl)amino)-2-chlorophenyl)(2-fluorophenyl)methanone], the EC50 came out at 0.311 µM.

In the case of `Cn1ccc2ccc(Nc3n[nH]c4cccnc34)cc21` [Example 53, N-(1-methyl-1H-indol-6-yl)-1H-pyrazolo[4,3-b]pyridin-3-amine], the EC50 was found to be 3.59 µM. Turning to `Oc1ccc(Nc2n[nH]c3cccnc23)cc1Cl` [Example 36, 4-((1H-pyrazolo[4,3-b]pyridin-3-yl)amino)-2-chlorophenol], the EC50 worked out at 0.217 µM. Consider `Fc1ccc(Nc2n[nH]c3cncnc23)cc1Cl` [Example 26, N-(3-chloro-4-fluorophenyl)-1H-pyrazolo[4,3-d]pyrimidin-3-amine], for which the 50% effective concentration (EC50) worked out at 3.07 µM.

As for `Fc1cncc(Nc2n[nH]c3cccnc23)c1` [Example 4, N-(5-fluoropyridin-3-yl)-1H-pyrazolo[4,3-b]pyridin-3-amine], the concentration giving a half-maximal response (EC50) was 9.18 µM.

Take `c1ccc(Nc2n[nH]c3cccnc23)cc1` [Example 20, N-phenyl-1H-pyrazolo[4,3-b]pyridin-3-amine]: the EC50 stood at 1.44 µM. For `Fc1cc(Nc2n[nH]c3cccnc23)ccc1Oc1cc(C(F)(F)F)ccn1` [Example 75, N-(3-fluoro-4-((4-(trifluoromethyl)pyridin-2-yl)oxy)phenyl)-1H-pyrazolo[4,3-b]pyridin-3-amine], the half-maximal effective concentration (EC50) amounted to 0.497 µM. Regarding `Clc1cncc(Nc2n[nH]c3cccnc23)n1` [Example 32, N-(6-chloropyrazin-2-yl)-1H-pyrazolo[4,3-b]pyridin-3-amine], the EC50 was 9.99 µM.

`Clc1ccc(Nc2n[nH]c3cccnc23)cc1Cl` [Example 68, N-(3,4-dichlorophenyl)-1H-pyrazolo[4,3-b]pyridin-3-amine]: the EC50 is 0.113 µM. Turning to `CS(=O)(=O)c1ccc(Nc2n[nH]c3cccnc23)cc1Cl` [Example 56, N-(3-chloro-4-(methylsulfonyl)phenyl)-1H-pyrazolo[4,3-b]pyridin-3-amine], the EC50 amounted to 7.86 µM.

Turning to `Cc1ccc(Cl)cc1Nc1n[nH]c2cccnc12` [Example 78, N-(5-chloro-2-methylphenyl)-1H-pyrazolo[4,3-b]pyridin-3-amine], the concentration for a half-maximal effect (EC50) was found to be 0.41 µM. Turning to `CS(=O)(=O)c1cc(Nc2n[nH]c3cccnc23)ccc1F` [Example 72, N-(4-fluoro-3-(methylsulfonyl)phenyl)-1H-pyrazolo[4,3-b]pyridin-3-amine], the EC50 amounted to 9.1 µM. On to `Clc1cccc(Oc2ccc(Nc3n[nH]c4cccnc34)cc2Cl)n1` [Example 77, N-(3-chloro-4-((6-chloropyridin-2-yl)oxy)phenyl)-1H-pyrazolo[4,3-b]pyridin-3-amine], for which the EC50 was found to be 0.088 µM. As for `c1cnc2c(Nc3nccs3)n[nH]c2c1` [Example 45, N-(1H-pyrazolo[4,3-b]pyridin-3-yl)thiazol-2-amine], the figure is 10 µM; as for `CCc1cccc(Nc2n[nH]c3cccnc23)c1` [Example 60, N-(3-ethylphenyl)-1H-pyrazolo[4,3-b]pyridin-3-amine], 2.58 µM. `CC1Oc2ccc(Nc3n[nH]c4cccnc34)cc2N(C)C1=O` (centres unmarked) [Example 63, 6-((1H-pyrazolo[4,3-b]pyridin-3-yl)amino)-2,4-dimethyl-2H-benzo[b][1,4]oxazin-3(4H)-one]: the EC50 is 8.34 µM.

Take `Fc1ccc(Nc2n[nH]c3cccnc23)cc1` [Example 65, N-(4-fluorophenyl)-1H-pyrazolo[4,3-b]pyridin-3-amine]: the EC50 is 1.42 µM.

Regarding `Clc1cccc(Nc2c[nH]c3cccnc23)c1` [Example 25, N-(3-chlorophenyl)-1H-pyrrolo[3,2-b]pyridin-3-amine], the half-maximal effective concentration (EC50) was 6.36 µM. On to `Fc1cc(Nc2n[nH]c3cccnc23)ccc1Oc1ccc(Cl)cn1` [Example 76, N-(4-((5-chloropyridin-2-yl)oxy)-3-fluorophenyl)-1H-pyrazolo[4,3-b]pyridin-3-amine], for which the concentration for a half-maximal effect (EC50) is 0.151 µM. `Oc1ccc(Nc2n[nH]c3cccnc23)cc1F` [Example 73, 4-((1H-pyrazolo[4,3-b]pyridin-3-yl)amino)-2-fluorophenol]: the concentration giving a half-maximal response (EC50) turned out to be 0.349 µM. For `O=C(c1cccc(C(F)(F)F)c1)c1ccc(Nc2n[nH]c3cccnc23)cc1Cl` [Example 38, (4-((1H-pyrazolo[4,3-b]pyridin-3-yl)amino)-2-chlorophenyl)(3-(trifluoromethyl)phenyl)methanone], the EC50 turned out to be 3.88 µM.

For `CN1C(=O)COc2ccc(Nc3n[nH]c4cccnc34)cc21` [Example 55, 6-((1H-pyrazolo[4,3-b]pyridin-3-yl)amino)-4-methyl-2H-benzo[b][1,4]oxazin-3(4H)-one], the EC50 is 8.14 µM. As for `Clc1cc(N(c2ncccn2)c2n[nH]c3cccnc23)ccc1Oc1ncccn1` [Example 27, N-(3-chloro-4-(pyrimidin-2-yloxy)phenyl)-N-(pyrimidin-2-yl)-1H-pyrazolo[4,3-b]pyridin-3-amine], the figure is 9.07 µM.

In the case of `Clc1cccc(CNc2n[nH]c3cccnc23)c1` [Example 50, N-(3-chlorobenzyl)-1H-pyrazolo[4,3-b]pyridin-3-amine], the EC50 was determined as 17.3 µM. Consider `CN1C(=O)N(c2ccc(Nc3n[nH]c4cccnc34)cc2Cl)C(=O)C1C(C)(C)C` (centres unmarked) [Example 35, 3-(4-((1H-pyrazolo[4,3-b]pyridin-3-yl)amino)-2-chlorophenyl)-5-(tert-butyl)-1-methylimidazolidine-2,4-dione], for which the EC50 was found to be 0.753 µM. Under `Cc1ccc(NC(=O)Nc2n[nH]c3cccnc23)cc1C` [Example 44, 1-(3,4-dimethylphenyl)-3-(1H-pyrazolo[4,3-b]pyridin-3-yl)urea] stands 12.8 µM. In the case of `Clc1cccc(Nc2n[nH]c3cccnc23)c1` [Example 1, N-(3-chlorophenyl)-1H-pyrazolo[4,3-b]pyridin-3-amine], the concentration giving a half-maximal response (EC50) is 0.138 µM.

As to `Cc1ccc(Nc2n[nH]c3cccnc23)cc1Cl` [Example 83, N-(3-chloro-4-methylphenyl)-1H-pyrazolo[4,3-b]pyridin-3-amine], the EC50 turned out to be 0.165 µM. Regarding `CC(C)(C)c1cccc(Nc2n[nH]c3cccnc23)c1` [Example 61, N-(3-(tert-butyl)phenyl)-1H-pyrazolo[4,3-b]pyridin-3-amine], the EC50 worked out at 7.93 µM. In the case of `Clc1cc(Nc2n[nH]c3cccnc23)cnc1N1CCCC1` [Example 31, N-(5-chloro-6-(pyrrolidin-l-yl)pyridin-3-yl)-1H-pyrazolo[4,3-b]pyridin-3-amine], the EC50 stood at 1.55 µM.

Consider `Fc1cc(F)cc(Nc2n[nH]c3cccnc23)c1` [Example 85, N-(3,5-difluorophenyl)-1H-pyrazolo[4,3-b]pyridin-3-amine], for which the concentration giving a half-maximal response (EC50) came to 0.101 µM. For `COc1ccc(Nc2n[nH]c3cccnc23)cc1OC(F)F` [Example 10, N-(3-(difluoromethoxy)-4-methoxyphenyl)-1H-pyrazolo[4,3-b]pyridin-3-amine], the EC50 turned out to be 0.885 µM. For `Fc1c(Cl)cccc1Nc1n[nH]c2cccnc12` [Example 17, N-(3-chloro-2-fluorophenyl)-1H-pyrazolo[4,3-b]pyridin-3-amine], the concentration for a half-maximal effect (EC50) was 0.623 µM.

On to `Clc1cc(Cl)cc(Nc2n[nH]c3cccnc23)c1` [Example 69, N-(3,5-dichlorophenyl)-1H-pyrazolo[4,3-b]pyridin-3-amine], for which the concentration giving a half-maximal response (EC50) was 0.043 µM. Under `Clc1cncc(Nc2n[nH]c3cccnc23)c1` [Example 14, N-(5-chloropyridin-3-yl)-1H-pyrazolo[4,3-b]pyridin-3-amine] stands 0.353 µM.

For orientation: EC50 means the concentration that produces a half-maximal response.
